Source: patent US8778876B2, “Small-molecule inhibitors of Dengue and West Nile virus proteases” (The Board of Regents of the University of Texas System, priority 2011, dated 2014)
“Also recorded” adds a separate entry of the source. Where two headings read alike, the source gives them in different places.

Key:
[1] = physchem; details: pH 9, aqueous with cosolvent or surfactant or cyclodextrin, kinetic from dmso stock
[2] = biological target: T1, Bovine pancreatic trypsin (Bos taurus, UniProt P00760); assay: biochemical; type: biochemical
T1 construct: purchased Sigma Aldrich; host or cells: bovine pancreas
T1 sequence (P00760 24-246): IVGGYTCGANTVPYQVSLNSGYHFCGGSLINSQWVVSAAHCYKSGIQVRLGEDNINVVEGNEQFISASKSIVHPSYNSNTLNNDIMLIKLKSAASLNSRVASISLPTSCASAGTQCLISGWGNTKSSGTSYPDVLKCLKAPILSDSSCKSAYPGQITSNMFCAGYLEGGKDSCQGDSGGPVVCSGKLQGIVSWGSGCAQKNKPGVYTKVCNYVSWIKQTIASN

[3] = biological target: T2, DEN2V NS2B-NS3pro (Dengue virus type 2, UniProt Q91H74); assay: Steady-state kinetics of inhibitors of DEN2V NS2B-NS3pro (Boc-GRR-AMC substrate, Dynafit); type: biochemical, Dengue 2 virus; details: for Mechanism: HTS-identified hits
T2 sequence (Q91H74 entry or part of it, added parts left off): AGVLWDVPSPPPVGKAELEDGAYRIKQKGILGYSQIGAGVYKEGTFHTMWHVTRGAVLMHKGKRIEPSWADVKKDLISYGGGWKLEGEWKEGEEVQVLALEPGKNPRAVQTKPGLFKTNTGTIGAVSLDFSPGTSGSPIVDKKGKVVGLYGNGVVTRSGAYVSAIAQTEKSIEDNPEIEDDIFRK
T2 sequence (Q91H74 entry or part of it partner, added parts left off): as the sequence (Q91H74 entry or part of it, added parts left off) above

[4] = biological target: WNV NS2B-NS3pro (West Nile virus, UniProt P06935); assay: Steady-state kinetics of inhibitors of WNV NS2B-NS3pro; type: biochemical
Chain of WNV NS2B-NS3pro (P06935 1502-1679 limits assumed): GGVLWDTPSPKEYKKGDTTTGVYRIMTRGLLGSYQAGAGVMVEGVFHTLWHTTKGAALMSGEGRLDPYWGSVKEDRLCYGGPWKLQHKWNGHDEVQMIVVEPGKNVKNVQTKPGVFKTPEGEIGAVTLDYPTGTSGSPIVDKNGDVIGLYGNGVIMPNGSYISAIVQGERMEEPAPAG
Chain of WNV NS2B-NS3pro (P06935 1424-1463 partner limits assumed): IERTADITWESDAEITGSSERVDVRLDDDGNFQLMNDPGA

[5] = pH 9
[6] = tested on: DENV; WNV protease; type: biochemical, Dengue virus; West Nile virus
[7] = biological target: T2, DEN2V NS2B-NS3pro; assay: Preliminary DEN2V NS2B-NS3pro inhibition assay; type: biochemical, Dengue 2 virus; details: 100 nM protease, 100 μM Boc-GRR-AMC, 30 min at 25° C.; aprotinin at 100 μM
[8] = DEN2V NS2B-NS3 Ki1, second series analogs
[9] = DEN2V NS2B-NS3 Ki2, second series analogs
[10] = Ki1 (from biochemical protease inihibition experiments) Dengue 2 virus NS2B-NS3
[11] = Ki1 (from biochemical protease inihibition experiments) West Nile virus NS2B-NS
[12] = Table 1, DEN2V NS2B-NS3pro, read-out: Ki1
[13] = Table 1, DEN2V NS2B-NS3pro, read-out: Ki2
[14] = Table 2, WNV NS2B-NS3pro, read-out: Ki1
[15] = Table 2, WNV NS2B-NS3pro, read-out: Ki2

Compound: O=C1c2ccc(O)c(O)c2C(=O)c2c(O)ccc(O)c21 [Compound 6A61]
- solubility [1]: > 10 µM
- Trypsin Mechanism [2]: did not inhibit trypsin; also recorded: No inhibition
- Ki [3, 8]: 72 ± 15 µM
- Ki [3, 9]: 10 ± 2 µM
- Ki [3, 10]: 72 µM
- DEN2V NS2B-NS3 Mechanism ([3]; second series analogs): Mixed
- Ki [4, 11]: 31 µM

Compound: O=c1[nH]c2cc([N+](=O)[O-])c([N+](=O)[O-])cc2[nH]c1=O [Compound 6A29]
- solubility [1]: < 10 µM

Compound: Nc1cccc2c1C(=O)c1ccccc1C2=O [Compound 6A25]
- solubility [1]: < 10 µM

Compound: Nc1ccc2c(c1[N+](=O)[O-])C(=O)c1ccccc1C2=O [Compound 6A35]
- solubility [1]: < 10 µM

Compound: CC[C@H](C)[C@H]1O[C@]2(CC[C@@H]1C)C[C@@H]1C[C@@H](C/C=C(\C)[C@@H](O[C@H]3C[C@H](OC)[C@@H](O[C@H]4C[C@H](OC)[C@@H](O)[C@H](C)O4)[C@H](C)O3)[C@@H](C)/C=C/C=C3\CO[C@@H]4[C@H](O)C(C)=C[C@@H](C(=O)O1)[C@]34O)O2 [MS21, Ivermectin, reference compound]
- Mechanism ([3]; Table 1, DEN2V NS2B-NS3pro): Mixed
- Ki [3, 12]: 79 ± 21 µM
- Ki [3, 13]: 35 ± 4 µM
- Mechanism ([4]; Table 2, WNV NS2B-NS3pro): Mixed
- Ki [4, 14]: 55 ± 18 µM
- Ki [4, 15]: 16 ± 4 µM

Compound: O=P(=O)c1ccc(OC2OCC(O)C(O)C2O)cc1 (centres unmarked) [Compound 6A31]
- solubility [5]: NS (key: compounds soluble in aqueous buffer were indicated with “S”; insoluble compounds indicated with “NS.”)

Compound: CN/N=C1/c2ccccc2C(=O)c2c(O)ccc(O)c21 [Compound 6A48]
- solubility [1]: > 10 µM

Compound: O=[N+]([O-])c1ccc(/C=N/c2ccc(O)c3ccccc23)c([N+](=O)[O-])c1 [Compound 260]
- Protease inhibited in Knock-down [6]: DENV; WNV
- Ki ([3]; Denpro Ki1): 52 µM
- Ki ([3]; Denpro Ki2): 5 µM
- Ki ([4]; WNpro Ki1): 14 µM
- Ki ([4]; WNpro Ki2): 5 µM

Compound: Cc1ccc2c(c1)C(=O)c1ccccc1C2=O [Compound 6A28]
- solubility [1]: < 10 µM

Compound: Cc1cccc2c1C(=O)c1cccc([N+](=O)[O-])c1C2=O [Compound 6A41]
- solubility [1]: < 10 µM

Compound: Nc1c(Br)cc(O)c2c1C(=O)c1ccccc1C2=O [Compound 6A53]
- solubility [1]: < 10 µM

Compound: Cc1cc(C(C)(C)CC(C)(C)C)ccc1OCCOCC[N+](C)(C)Cc1ccccc1.[Cl-] [MS22, Methylbenzethonium chloride, reference compound]
- Mechanism ([3]; Table 1, DEN2V NS2B-NS3pro): Mixed
- Ki [3, 12]: 322 ± 81 µM
- Ki [3, 13]: 160 ± 39 µM
- Mechanism ([4]; Table 2, WNV NS2B-NS3pro): Mixed
- Ki [4, 14]: 141 ± 20 µM
- Ki [4, 15]: 307 ± 80 µM

Compound: aprotinin [reference compound]
- Inhibition of DEN2V NS2B-NS3pro in the preliminary inhibition assay [7]: fluorescence levels that were similar to that of the “substrate alone” background control

Compound: O=Cc1ccc2c(c1)C(=O)c1ccccc1C2=O [Compound 6A50]
- solubility [1]: > 10 µM

Compound: Oc1ccc2cc3ccc(O)cc3c(O)c2c1 [Compound 6A60]
- solubility [1]: > 10 µM
- Trypsin Mechanism [2]: did not inhibit trypsin cleavage activity; also recorded: No inhibition
- Ki [3, 8]: 7 ± 5 µM
- Ki [3, 9]: 3 ± 1 µM
- Ki [3, 10]: 7 µM
- DEN2V NS2B-NS3 Ki1 ([3]; second series analogs): lowest Ki1 of all anthracene-based analogs
- DEN2V NS2B-NS3 Mechanism ([3]; second series analogs): Mixed
- Ki [4, 11]: 11 µM

Compound: O=[N+]([O-])c1cc(/N=N/c2ccc(O)c3cc(O)ccc23)ccc1O [Compound 297]
- Protease inhibited in Knock-down [6]: DENV; WNV
- Ki ([3]; Denpro Ki2): 85 µM
- Ki ([4]; WNpro Ki2): 61 µM

Compound: O=[N+]([O-])c1ccc(/N=N/c2ccc3cc(O)c(O)cc3c2)c(O)c1 [Compound 300]
- Protease inhibited in Knock-down [6]: DENV; WNV
- Ki ([3]; Denpro Ki1): 81 µM
- Ki ([3]; Denpro Ki2): 5 µM
- Ki ([4]; WNpro Ki1): 3 µM
- Ki ([4]; WNpro Ki2): 2 µM

Compound: O=[N+]([O-])c1ccc(N=Nc2ccc(O)c3ccccc23)c([N+](=O)[O-])c1 [Compound 6A49]
- solubility [1]: > 10 µM
- Mechanism (trypsin inhibition) [2]: did not inhibit trypsin; also recorded: No inhibition
- Protease inhibited in Knock-down [6]: DENV; WNV
- Inhibition of DEN2V NS2B-NS3pro in the preliminary inhibition assay [7]: significant inhibition
- Ki [4, 11]: 34 µM
- Ki ([4]; WNpro Ki1): 34 µM

Compound: CO[C@H]1C[C@H](O[C@@H]2/C(C)=C/C[C@@H]3C[C@@H](C[C@]4(CC[C@H](C)[C@@H](C5CCCCC5)O4)O3)OC(=O)[C@@H]3C=C(C)/C(=N/O)[C@H]4OC/C(=C\C=C\[C@@H]2C)[C@]43O)O[C@@H](C)[C@@H]1O [MS24, Selamectin, reference compound]
- Ki ([3]; Ki1, Table 1, DEN2V NS2B-NS3pro): 63 ± 18 µM
- Ki ([3]; Ki2, Table 1, DEN2V NS2B-NS3pro): 45 ± 8 µM
- Mechanism ([3]; Table 1, DEN2V NS2B-NS3pro): Mixed
- Ki ([4]; Ki1, Table 2, WNV NS2B-NS3pro): 15 ± 9 µM
- Ki ([4]; Ki2, Table 2, WNV NS2B-NS3pro): 28 ± 6 µM
- Mechanism ([4]; Table 2, WNV NS2B-NS3pro): Mixed

Compound: COc1cc(O)c2c(=O)c3c(O)ccc(OCl)c3oc2c1 [Compound 6A63]
- solubility [1]: < 10 µM
- Solubility in the kinetic reaction buffer [5]: not soluble

Compound: O=[N+]([O-])c1cc([N+](=O)[O-])c2ccccc2c1[O-].[Na+] [Compound 6A40]
- solubility [1]: < 10 µM
